The subject of this assay is washed platelet. The assay is described as follows: Effect on platelet aggregation (washed platelets stimulated with thrombin or platelet-activating factor, Born method). In kind it is cell-based, white rabbit. Particulars: for IC50: Oryctolagus cuniculus, 0.05 h, 3 min incubation, 37° C. The method, then: 8.5 vol of blood was collected from the carotid arteries of a white rabbit, and placed in a tube containing 1.5 vol of a citrate-dextrose solution (71 mM citric acid, 85 mM sodium citrate and 111 mM dextrose). The thus obtained blood was centrifuged at 200 xg for 15 minutes to obtain platelet-rich plasma (PRP). This PRP was centrifuged at 650×g for 10 minutes to obtain platelet precipitates. After washing with Ca^++ -free Tyrode's solution containing 2 mM ethylenebis(oxyethylenenitrilo)tetraacetic acid (hereinafter referred to as EGTA), the platelet precipitates were centrifuged again at 650×g for 10 minutes for washing. The resulting platelet precipitates were suspended in Ca^++ -free Tyrode's solution containing 0.25% bovine serum albumin to reach a density of 5×10^8 cells/ml. After allowing to stand for about 30 minutes, 1 mM CaCl2 or 1 mM EGTA was added to the suspension of the washed platelet. The mixture was allowed to stand for further 30 minutes, and then platelet aggregation was measured.
The platelet aggregation was measured with an aggregometer, ACGRETEC TE-500 (product of Erma Optical Co., Ltd.) to which the Born method was applied.
First, 10 μl portions of a test compound solution were added to 0.2 ml portions of the suspension of the washed platelet, while stirring at 1,000 rpm and at 37° C. After incubation at 37° C. for 3 minutes, 10 μl portions of a stimulating agent thrombin (final concentration : 0.05 U/ml) or platelet-activating factor (final concentration: 10^-10 M) were added thereto, respectively to initiate the reaction. The rate of platelet aggregation inhibition of the test compound were calculated from the maximum aggregation rate obtained by the use of the test compound and the maximum aggregation rate obtained by use of only the solvent used for dissolving the test compound, according to the following equation. The effect of the test compound was determined as the drug concentration which gave the inhibition rate of 50%. [formula] A: maximum aggregation rate in use of the solvent alone B: maximum aggregation rate in use of the test compound

One compound from patent publication US5004833A, “KS-501 derivatives” (Kyowa Hakko Kogyo Co., Ltd., priority 1988, dated 1991) can be followed below.

In brackets after ≈: the same amount, converted by molar mass. Where two headings read alike, the source gives them in different places.

`CCCCCCCc1cc(O)cc(OC(=O)c2c(O)cc(O)cc2CCCCCCC)c1` [Compound 4]: the IC50 – broadly, the concentration that gives 50% inhibition – (stimulating agent platelet-activating factor, final concentration 10^-10 M, read-out: IC50 (platelet aggregation inhibition, stimulating agent platelet-activating factor)) came to 45 µg/mL (≈ 102 µM) and the IC50 (Platelet, stimulating agent thrombin, final concentration 0.05 U/ml, read-out: IC50 (platelet aggregation inhibition, stimulating agent thrombin)) came out at 72 µg/mL (≈ 163 µM). Further, the “inhibition of platelet aggregation, in words” value (stimulated with thrombin and platelet-activating factor) was “inhibited platelet aggregation”.
